Source: US6377057B1, “Classification of biological agents according to the spectral density signature of evoked changes in cellular electric potential” (priority 1999, dated 2002)

System: embryonic chick myocardial cells
Type: cell-based

| Compound | PSD ratio (PSD after agent ÷ PSD before agent), modulation function of the action potential | PSD modulation function of the action potential (additional data, concentration not given) |
| --- | --- | --- |
| CNC[C@H](O)c1ccc(O)c(O)c1 [Epinephrine] | enhanced the power of the AP across a 2 kHz bandwidth with a slight bandpass effect observed | – |
| CC[N+](CC)(CC)CC(=O)Nc1c(C)cccc1C.[Br-] [QX-314] | – | modulation function similar to that of TTX, but with additional attenuation at lower frequencies |
| NC1=N[C@H](O)[C@H]2[C@H]3O[C@]4(O)O[C@@H]([C@@H](O)[C@@]2(N1)[C@@H]4O)[C@]3(O)CO [Tetrodotoxin] | low pass filter effect that clearly reduced the high frequency components of the AP | – |
